Measurements: paper PMC10301603, “Potent and Selective Benzothiazole-Based Antimitotics with Improved Water Solubility: Design, Synthesis, and Evaluation as Novel Anticancer Agents” (Pharmaceutics, 2023)
One block for each compound: values may come before it.

What was measured:
HT-29 cells = test: Cell growth inhibition assay (MTT); type: cell-based, human
How it was run: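 Following overnight (24 h) attachment, cultures received serial compound concentrations from 10^−10 to 10^−2 M and were incubated 72 h before MTT viability measurement. Where efflux-pump sensitivity was tested, IC50 was redetermined with 10 µM verapamil present.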

HeLa cells = test: Cell growth inhibition assay (MTT); type: cell-based, human; details: 72 h after drug exposure
How it was run: (§1)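 Cells seeded (30,000 cells/mL for T98G and PC-3; 15,000 cells/mL for HeLa), attached 24 h at 37 °C, then treated with compounds at 10^−10 to 10^−2 M for 72 h. Viability read by MTT; IC50 from triplicate points, three independent experiments.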

HepG2 cells = test: Cell growth inhibition assay (MTT); type: cell-based, human
How it was run: (§2)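 Cells in DMEM with 10% FBS attached for 24 h, then treated 72 h; MTT read-out. Single-point screen at 10 µM, IC50 from 10^−10 to 10^−2 M series in triplicate, three experiments; efflux sensitivity assessed with 10 µM verapamil.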

LNCaP cells = test: Cell growth inhibition assay (MTT); type: cell-based, human; details: 72 h after drug exposure
How it was run: as §2

MCF7 cells = test: Cell growth inhibition assay (MTT); type: cell-based, human; details: for IC50: MTT, 72 h after drug exposure
How it was run: as §2

PC-3 cells = test: Cell growth inhibition assay (MTT); type: cell-based, human
How it was run: as §1

T98G cells = test: Cell growth inhibition assay (MTT); type: cell-based, human; details: 72 h after drug exposure
How it was run: as §1

U87MG cells [1] = test: Cell growth inhibition assay (MTT); type: cell-based, human; details: for IC50: MTT, 72 h after drug exposure
How it was run: as §2

GL261 cells = test: Cell growth inhibition assay (MTT); type: cell-based, murine
How it was run: as §2

HEK-293 cells = test: Cell growth inhibition assay (MTT), non-tumorigenic cells; type: cell-based, human; details: non-tumorigenic cell line
How it was run: as §2

bovine brain tubulin = test: Tubulin polymerization inhibition (turbidimetry); type: biochemical; details: for % TPI: compounds tested at 10 µM, with respect to the negative control; for IC50: concentration inhibiting 50% of microtubular protein polymerization in vitro, read-out: TPI IC50
How it was run: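 Turbidimetric assay using calf-brain microtubular protein: polymerization started by a shift from 4 °C to 37 °C and followed by absorbance at 450 nm. Percent inhibition calculated against a ligand-free control; IC50 determined only for compounds giving >50% inhibition at 10 µM. Triplicates in two independent experiments using separate protein preparations.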

U87MG cells [2] = test: Cell cycle analysis (PI, flow cytometry); type: cell-based, human; details: for combined G2/M plus subG0/G1 populations: over the three time points (24, 48, 72 h)
Experimental: An amount of 8 × 10^4 cells/mL (HeLa, MCF7, or U87 MG cells) were seeded in 6-well plates (2 mL/well) and incubated in complete DMEM medium (see above) at 37 °C and 5% CO2 atmosphere for 24 h. Then, the medium was replaced with fresh complete DMEM in the presence or absence of the selected compounds (8, 9, and 14). The concentration of the compounds was selected according to their IC50 value for the antiproliferative activity in each cell line (see above, Section 2.4.4). […] Untreated cells were used as negative controls. Cells were harvested 24, 48, or 72 h following treatment and fixed in ice-cold ethanol/PBS (7:3) overnight. Cells were then washed twice with PBS, suspended in PBS, and incubated overnight in darkness with 0.2 mg/mL RNase A (Sigma-Aldrich, St. Louis, MO, USA), 50 µg/mL propidium iodide (Sigma-Aldrich, St. Louis, MO, USA), and Triton 10× at room temperature. BD Accuri™ C6 Plus Flow Cytometer (BD Biosciences) was used to analyze samples, and BD Accuri™ C6 Software (version 1.0.264.21) was used for data analysis.

[3] = 24 h, 8 50 nM, 14 and 9 200 nM (Figure 6 legend; 100 nM in methods)

- IC50 (HT-29 cells; Homo sapiens, HT-29, 72 h after drug exposure): 322 nM
- IC50 (HeLa cells; Homo sapiens, HeLa): 107 nM
- IC50 (HepG2 cells; Homo sapiens, HepG2, 72 h after drug exposure): 83 nM
- IC50 (LNCaP cells; Homo sapiens, LNCaP): 93 nM
- IC50 (MCF7 cells; Homo sapiens, MCF7): 15 nM
- IC50 (PC-3 cells; Homo sapiens, PC-3, 72 h after drug exposure): 195 nM
- IC50 (U87MG cells [1]; Homo sapiens, U-87 MG): 37 nM
- IC50 (bovine brain tubulin): 4100 nM
SMILES: COc1ccc2nc(N(C=O)Cc3cccnc3)sc2c1 [Compound 14, N-(6-methoxybenzo[d]thiazol-2-yl)-N-(pyridin-3-ylmethyl)formamide]
- selectivity index against MCF7 (MCF7 cells; HEK-293 versus MCF7): ~500
- IC50 (T98G cells; Homo sapiens, T98G): 75 nM
- IC50 (GL261 cells; Mus musculus, GL261, 72 h after drug exposure): 35 nM
- IC50 (HEK-293 cells; Homo sapiens, HEK293, 72 h after drug exposure): 8220 nM
- % TPI (bovine brain tubulin): 87%
- combined G2/M plus subG0/G1 populations (U87MG cells [2]): roughly 75%

- IC50 (HT-29 cells; 72 h after drug exposure): 208 nM
- IC50 (HeLa cells): 85 nM
- IC50 (HepG2 cells; 72 h after drug exposure): 94 nM
- IC50 (LNCaP cells): 88 nM
- IC50 (MCF7 cells): 34 nM
- IC50 (PC-3 cells; 72 h after drug exposure): 161 nM
- IC50 (U87MG cells [1]): 9 nM
- IC50 (bovine brain tubulin): 2900 nM
SMILES: CCNC(=O)N(Cc1cccnc1)c1nc2ccc(OC)cc2s1 [Compound 8]
- IC50 (T98G cells): 52 nM
- selectivity index against U87MG (U87MG cells [1]; HEK-293 versus U87MG): ~900
- IC50 (GL261 cells; 72 h after drug exposure): 25 nM
- IC50 (HEK-293 cells; 72 h after drug exposure): 7970 nM
- % TPI (bovine brain tubulin): 100%
- G2/M population (U87MG cells [2]; [3]): 39%
- SubG0/G1 population (U87MG cells [2]; [3]): 41%
- combined G2/M plus subG0/G1 populations (U87MG cells [2]): ~85%
